From ChEMBL document CHEMBL5385873, “Analogues of natural products yaequinolones as potential inflammatory inhibitors: Design, synthesis and biological evaluation” (Eur J Med Chem, 2023)
Active and inactive are the calls of the source. No cut-off for these calls is given here.

Key:
Assay type in all cases: functional, cell-based
RAW264.7 [1] = assay: Antiinflammatory activity in mouse RAW264.7 cells assessed as inhibition of LPS-induced NO production at 0.05 uM incubated for 24 hrs
RAW264.7 [2] = assay: Antiinflammatory activity in mouse RAW264.7 cells assessed as inhibition of LPS-induced NO production at 1 uM incubated for 24 hrs
RAW264.7 [3] = assay: Antiinflammatory activity in mouse RAW264.7 cells assessed as inhibition of LPS-induced TNF-alpha expression at 0.1 uM measured after 24 hrs by ELISA method
RAW264.7 [4] = assay: Cytotoxicity against mouse RAW264.7 cells assessed as reduction in cell viability at <50 uM incubated for 24 hrs by MTT assay
RAW264.7 [5] = assay: Antiinflammatory activity in mouse RAW264.7 cells assessed as reduction in LPS-induced IL-6 level at 0.05 uM measured after 24 hrs by ELISA method
RAW264.7 [6] = assay: Antiinflammatory activity in mouse RAW264.7 cells assessed as inhibition of LPS-induced NO production at 0.1 uM incubated for 24 hrs
RAW264.7 [7] = assay: Cytotoxicity against mouse RAW264.7 cells assessed as reduction in cell viability at 2 to 10 uM incubated for 24 hrs by MTT assay; conditions: dose 2-10 µM
RAW264.7 [8] = assay: Antiinflammatory activity in mouse RAW264.7 cells assessed as inhibition of LPS-induced NO production at 0.2 uM incubated for 24 hrs
RAW264.7 [9] = assay: Antiinflammatory activity in mouse RAW264.7 cells assessed as inhibition of LPS-induced TNF-alpha expression at 0.2 uM measured after 24 hrs by ELISA method
RAW264.7 [10] = assay: Antiinflammatory activity in mouse RAW264.7 cells assessed as reduction in LPS-induced IL-6 level at 0.2 uM measured after 24 hrs by ELISA method
RAW264.7 [11] = assay: Cytotoxicity against mouse RAW264.7 cells assessed as reduction in cell viability at 10 uM incubated for 24 hrs by MTT assay
RAW264.7 [12] = assay: Antiinflammatory activity in mouse RAW264.7 cells assessed as inhibition of LPS-induced NO production at 2 uM incubated for 24 hrs

Row | Structure (SMILES) | Activity (RAW264.7 [1]) | Activity (RAW264.7 [2]) | Activity (RAW264.7 [4]) | Activity (RAW264.7 [6]) | also measured
1 | CO[C@@H]1C(=O)Nc2ccc3c(c2[C@@]1(O)c1ccccc1)O[C@](C)(CCC=C(C)C)C=C3 | inactive | Active | inactive | Active | Activity (RAW264.7 [3]): inactive; Activity (RAW264.7 [5]): Active
2 | CO[C@@H]1C(=O)Nc2ccc3c(c2[C@@]1(O)c1ccc(Br)cc1)O[C@](C)(CCC=C(C)C)C=C3 (racemic) | inactive | Active | inactive | – | –
3 | COc1ccc([C@]2(O)c3c(ccc4c3O[C@@](C)(CCC=C(C)C)C=C4)N(C)C(=O)[C@H]2OC)cc1 (racemic) | inactive | Active | inactive | – | –
4 | CO[C@H]1C(=O)Nc2ccc3c(c2[C@]1(O)c1ccccc1)O[C@@](C)(CCC=C(C)C)C=C3 | – | – | inactive | – | –
5 | CO[C@@H]1C(=O)Nc2ccc3c(c2[C@@]1(O)c1ccc(Cl)cc1)O[C@@](C)(CCC=C(C)C)C=C3 (racemic) | – | – | inactive | – | –
6 | CO[C@@H]1C(=O)Nc2ccc3c(c2[C@@]1(O)c1ccc([N+](=O)[O-])cc1)O[C@@](C)(CCC=C(C)C)C=C3 (racemic) | inactive | Active | inactive | Active | Activity (RAW264.7 [3]): inactive; Activity (RAW264.7 [5]): Active
7 | COc1ccc([C@]2(O)c3c(ccc4c3O[C@](C)(CCC=C(C)C)C=C4)N(Cc3cccc(C(F)(F)F)c3)C(=O)[C@H]2OC)cc1 (racemic) | inactive | Active | inactive | Active | –
8 | COc1ccc([C@]2(O)c3c(ccc4c3O[C@](C)(CCC=C(C)C)C=C4)N(C)C(=O)[C@H]2OC)cc1 (racemic) | inactive | Active | inactive | – | –
9 | CO[C@@H]1C(=O)Nc2ccc3c(c2[C@@]1(O)c1ccccc1)O[C@@](C)(CCC=C(C)C)C=C3 | – | – | inactive | – | –
10 | COc1ccc([C@]2(O)c3c(ccc4c3O[C@@](C)(CCC=C(C)C)C=C4)N(Cc3ccc(Cl)cc3)C(=O)[C@H]2OC)cc1 (racemic) | inactive | Active | inactive | Active | –
11 | CO[C@@H]1C(=O)Nc2ccc3c(c2[C@@]1(O)c1ccc(F)cc1)O[C@](C)(CCC=C(C)C)C=C3 (racemic) | – | – | inactive | – | –
12 | CO[C@@H]1C(=O)Nc2ccc3c(c2[C@@]1(O)c1ccc(Br)cc1)O[C@@](C)(CCC=C(C)C)C=C3 (racemic) | – | – | – | – | Activity (RAW264.7 [7]): Active
13 | CO[C@@H]1C(=O)Nc2ccc3c(c2[C@@]1(O)c1cccc(Br)c1)O[C@@](C)(CCC=C(C)C)C=C3 (racemic) | inactive | Active | inactive | Active | –
14 | CO[C@@H]1C(=O)Nc2ccccc2[C@@]1(O)c1ccccc1 (relative stereo) | – | – | – | – | Activity (RAW264.7 [8]): Active; Activity (RAW264.7 [9]): Active; Activity (RAW264.7 [10]): inactive; Activity (RAW264.7 [11]): Active
15 | CO[C@@H]1C(=O)Nc2ccc3c(c2[C@@]1(O)c1ccc(C)cc1)O[C@](C)(CCC=C(C)C)C=C3 (racemic) | – | – | inactive | – | –
16 | COc1ccc([C@]2(O)c3c(ccc4c3O[C@](C)(CCC=C(C)C)C=C4)N(Cc3ccccc3Cl)C(=O)[C@H]2OC)cc1 (racemic) | – | – | inactive | – | –
17 | CO[C@@H]1C(=O)Nc2ccc3c(c2[C@@]1(O)c1ccc(Cl)cc1)O[C@](C)(CCC=C(C)C)C=C3 (racemic) | – | – | inactive | – | –
18 | CO[C@@H]1C(=O)Nc2ccc3c(c2[C@@]1(O)c1ccc(F)cc1)O[C@@](C)(CCC=C(C)C)C=C3 (racemic) | – | – | inactive | – | –
19 | COc1ccc([C@]2(O)c3c(ccc4c3O[C@@](C)(CCC=C(C)C)C=C4)N(Cc3cccc(C)c3)C(=O)[C@H]2OC)cc1 (racemic) | – | – | inactive | – | –
20 | COc1ccc([C@]2(O)c3c(ccc4c3O[C@@](C)(CCC=C(C)C)C=C4)N(Cc3cccc(C(F)(F)F)c3)C(=O)[C@H]2OC)cc1 (racemic) | – | – | inactive | – | –
21 | COc1cccc([C@]2(O)c3c(ccc4c3O[C@](C)(CCC=C(C)C)C=C4)NC(=O)[C@H]2OC)c1 (racemic) | inactive | Active | inactive | – | –
22 | COc1ccc([C@]2(O)c3c(ccc4c3O[C@@](C)(CCC=C(C)C)C=C4)NC(=O)[C@H]2OC)cc1 | – | – | inactive | – | –

Row | Structure (SMILES) | Activity (RAW264.7 [1]) | Activity (RAW264.7 [2]) | Activity (RAW264.7 [4]) | Activity (RAW264.7 [6]) | also measured
23 | COc1ccc([C@]2(O)c3c(ccc4c3O[C@](C)(CCC=C(C)C)C=C4)N(Cc3cccc(Br)c3)C(=O)[C@H]2OC)cc1 (racemic) | inactive | Active | – | Active | Activity (RAW264.7 [7]): Active
24 | CO[C@@H]1C(=O)Nc2ccc3c(c2[C@@]1(O)c1ccc(C(F)(F)F)cc1)O[C@](C)(CCC=C(C)C)C=C3 (racemic) | inactive | Active | inactive | – | –
25 | COc1ccc2c(c1)c(CC(=O)O)c(C)n2C(=O)c1ccc(Cl)cc1 | – | – | inactive | – | Activity (RAW264.7 [12]): inactive
26 | COc1ccc([C@]2(O)c3c(ccc4c3O[C@](C)(CCC=C(C)C)C=C4)NC(=O)[C@H]2OC)cc1 | inactive | Active | inactive | – | –
27 | CO[C@@H]1C(=O)Nc2ccc3c(c2[C@@]1(O)c1ccc(C(F)(F)F)cc1)O[C@@](C)(CCC=C(C)C)C=C3 (racemic) | inactive | Active | – | Active | Activity (RAW264.7 [3]): inactive; Activity (RAW264.7 [7]): Active
28 | COc1ccc([C@]2(O)c3c(ccc4c3O[C@@](C)(CCC=C(C)C)C=C4)N(Cc3cccc(Br)c3)C(=O)[C@H]2OC)cc1 (racemic) | inactive | Active | inactive | Active | –
29 | COc1ccc([C@]2(O)c3c(ccc4c3O[C@@](C)(CCC=C(C)C)C=C4)N(Cc3cccc(C)n3)C(=O)[C@H]2OC)cc1 (racemic) | inactive | Active | inactive | Active | –
30 | COc1ccc([C@@]2(O)c3c(ccc4c3O[C@@](C)(CCC=C(C)C)C=C4)NC(=O)[C@@H]2OC)cc1 | – | – | inactive | – | –
31 | COc1cccc([C@]2(O)c3c(ccc4c3O[C@@](C)(CCC=C(C)C)C=C4)NC(=O)[C@H]2OC)c1 (racemic) | inactive | Active | inactive | – | –
32 | CO[C@@H]1C(=O)Nc2ccc3c(c2[C@@]1(O)c1ccc([N+](=O)[O-])cc1)O[C@](C)(CCC=C(C)C)C=C3 (racemic) | inactive | Active | inactive | Active | Activity (RAW264.7 [3]): inactive
33 | COc1ccc([C@]2(O)c3c(ccc4c3O[C@](C)(CCC=C(C)C)C=C4)N(Cc3ccc(Cl)cc3)C(=O)[C@H]2OC)cc1 (racemic) | inactive | Active | inactive | – | –
34 | COc1ccc([C@]2(O)c3c(ccc4c3O[C@](C)(CCC=C(C)C)C=C4)N(Cc3cccc(C)n3)C(=O)[C@H]2OC)cc1 (racemic) | – | – | inactive | – | –
35 | COc1ccc([C@]2(O)c3c(ccc4c3O[C@@](C)(CCC=C(C)C)C=C4)N(Cc3ccccc3Cl)C(=O)[C@H]2OC)cc1 (racemic) | inactive | Active | inactive | – | –
36 | COc1ccc([C@]2(O)c3c(ccc4c3O[C@](C)(CCC=C(C)C)C=C4)N(Cc3cccc(F)c3)C(=O)[C@H]2OC)cc1 (racemic) | inactive | Active | inactive | Active | –
37 | COc1cccc2c1[C@@](O)(c1ccccc1)[C@H](OC)C(=O)N2 (relative stereo) | – | – | – | – | Activity (RAW264.7 [8]): Active; Activity (RAW264.7 [9]): Active; Activity (RAW264.7 [10]): Active; Activity (RAW264.7 [11]): Active
38 | COc1ccc([C@@]2(O)c3c(ccc4c3O[C@](C)(CCC=C(C)C)C=C4)NC(=O)[C@@H]2OC)cc1 | – | – | inactive | – | –
39 | COc1ccc([C@]2(O)c3c(ccc4c3O[C@@](C)(CCC=C(C)C)C=C4)N(Cc3cccc(F)c3)C(=O)[C@H]2OC)cc1 (racemic) | inactive | Active | inactive | – | –
40 | COc1ccc([C@]2(O)c3c(ccc4c3O[C@](C)(CCC=C(C)C)C=C4)N(Cc3cccc(C)c3)C(=O)[C@H]2OC)cc1 (racemic) | – | – | inactive | – | –
41 | CO[C@@H]1C(=O)Nc2ccc3c(c2[C@@]1(O)c1ccc(C)cc1)O[C@@](C)(CCC=C(C)C)C=C3 (racemic) | – | – | inactive | – | –
42 | CO[C@H]1C(=O)Nc2ccc3c(c2[C@]1(O)c1ccccc1)O[C@](C)(CCC=C(C)C)C=C3 | inactive | Active | inactive | Active | Activity (RAW264.7 [3]): inactive; Activity (RAW264.7 [5]): Active
43 | CO[C@@H]1C(=O)Nc2ccc3c(c2[C@@]1(O)c1cccc(Br)c1)O[C@](C)(CCC=C(C)C)C=C3 (racemic) | inactive | Active | inactive | Active | Activity (RAW264.7 [3]): inactive; Activity (RAW264.7 [5]): Active
